According to patent publication US12263155B2, “Combinations of monoamine oxidase inhibitors and serotonin receptor agonists and their therapeutic use” (Remedi, Inc., priority 2022, dated 2025):

Tests used:
rat brain MAO-A = biological target: T1, rat brain MAO-A (Rattus norvegicus, UniProt P21396); assay: In vitro inhibition of rat brain MAO-A; assay type: biochemical
T1 construct: prepared from brain homogenates of male Sprague-Dawley rats, served as the source of MAO-A enzymatic activity; from tissue
T1 sequence (P21396 1-526): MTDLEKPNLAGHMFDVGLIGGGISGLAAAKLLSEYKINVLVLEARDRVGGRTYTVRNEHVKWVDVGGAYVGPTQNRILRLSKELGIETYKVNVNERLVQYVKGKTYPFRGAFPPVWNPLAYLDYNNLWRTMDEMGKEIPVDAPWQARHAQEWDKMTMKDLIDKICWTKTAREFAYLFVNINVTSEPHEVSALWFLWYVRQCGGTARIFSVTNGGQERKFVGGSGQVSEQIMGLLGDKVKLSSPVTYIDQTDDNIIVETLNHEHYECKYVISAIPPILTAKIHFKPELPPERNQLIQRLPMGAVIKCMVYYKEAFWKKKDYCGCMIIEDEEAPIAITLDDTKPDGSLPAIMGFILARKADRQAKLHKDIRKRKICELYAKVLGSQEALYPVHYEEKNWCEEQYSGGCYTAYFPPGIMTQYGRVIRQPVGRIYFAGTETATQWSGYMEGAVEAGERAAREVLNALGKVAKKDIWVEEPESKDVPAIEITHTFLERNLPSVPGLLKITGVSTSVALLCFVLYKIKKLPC
Protocol: (§1) Methods: The soluble extract of the mitochondrial enriched fraction (P2 pellet), which was prepared from brain homogenates of male Sprague-Dawley rats, served as the source of MAO-A enzymatic activity. The P2 fraction was prepared and was stored frozen until being thawed for use on the day of assay. Final concentrations of 50 μM [^14C]-serotonin (5-HT) and 10 μM [^14C]-phenylethylamine (PEA) were employed as specific substrates for MAO-A and MAO-B, respectively. Test compound inhibition was based on competition for oxidation of these radio-labeled substrates. MAO-A assay specificity was enhanced by inclusion of 0.1 μM deprenyl to prevent substrate oxidation by MAO-B. Likewise, MAO-B assays included 0.1 μM clorgyline to block MAO-A activity. […] Inhibition of enzymatic activities was expressed as IC50 and as the Ki, which was calculated using the Cheng-Prusoff equation.

rat brain MAO-B = biological target: T2, rat brain MAO-B (Rattus norvegicus, UniProt P19643); assay: In vitro inhibition of rat brain MAO-B; assay type: biochemical; settings: 10 μM [14C]-PEA, all concentrations tested
T2 construct: from tissue; host or cells: rat brain
T2 sequence (P19643 1-520): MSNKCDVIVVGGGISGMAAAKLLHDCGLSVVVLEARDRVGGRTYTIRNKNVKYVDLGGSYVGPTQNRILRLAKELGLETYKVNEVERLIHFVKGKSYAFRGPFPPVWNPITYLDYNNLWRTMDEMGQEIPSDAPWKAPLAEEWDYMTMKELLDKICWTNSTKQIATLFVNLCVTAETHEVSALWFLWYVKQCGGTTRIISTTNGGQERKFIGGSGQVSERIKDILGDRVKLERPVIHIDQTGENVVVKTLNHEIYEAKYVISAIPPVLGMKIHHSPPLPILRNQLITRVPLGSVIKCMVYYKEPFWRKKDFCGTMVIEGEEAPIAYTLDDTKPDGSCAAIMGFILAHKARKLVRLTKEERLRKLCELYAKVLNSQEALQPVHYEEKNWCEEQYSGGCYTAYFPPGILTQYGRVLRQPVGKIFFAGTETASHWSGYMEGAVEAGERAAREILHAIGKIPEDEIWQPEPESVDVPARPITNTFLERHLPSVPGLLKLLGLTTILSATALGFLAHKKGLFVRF
Protocol: as §1

[1] = Exemplary administration of CX157, DMT and combinations: subjective effects; assay type: in vivo; settings: 175 mg CX157 alone
Protocol: Administration Example 1: Subjects are administered 175 mg CX157 alone.
Administration Example 2: Subjects are administered 25 mg, 37.5 mg, 50 mg, 75 mg, or 100 mg DMT freebase in a capsule.
Administration Example 3: Subjects are administered 175 mg CX157, and then from between 2-3 hours later, such as at 2 hours 40 minutes later, a dose of 0.03 mg/kg, 0.05 mg/kg, or 0.07 mg/kg DMT freebase in capsule. Alternatively, subjects are administered a capsule containing 2.5 mg, 3.75 mg, 5 mg, 7.5 mg, 10 mg, 12.5 mg, 15 mg, 17.5 mg, or 20 mg DMT freebase.
Administration Example 4: Subjects are administered 175 mg CX157, and then from between 2-3 hours later, such as at 2 hours 15 minutes later, a dose of 0.2 mg/kg, 0.4 mg/kg, or 0.6 mg/kg DMT freebase in capsule. Alternatively, subjects are administered a capsule containing 25 mg, 37.5 mg, 50 mg, 75 mg, 100 mg, 125 mg, 150 mg, 175 mg, or 200 mg DMT freebase. At lower doses of DMT, subjects report effects that are relaxing, comforting, and “warm,” and describe mildly mood-elevating and anxiolytic properties. […]

For `O=S1(=O)c2ccc(F)cc2Oc2cc(OCC(F)(F)F)ccc21` [CX157, 3-fluoro-7(2,2,2-trifluorethoxy)phenoxathiine-10,10-dioxide], the “Ki for CX157/Ki for RO-41-1049” value (rat brain MAO-A; Brain MAO-A) was 0.006, the “Ki fold lower than reference compound RO 41-1049” value (rat brain MAO-A; rat brain MAO-A) was greater than 10 fold and the IC50 (rat brain MAO-A; rat brain P2 extract, 50 μM [14C]-5-HT) was 0.09 nM. For the same compound, the Ki (rat brain MAO-A; rat brain, Cheng-Prusoff) was 0.09 nM, the “inhibition of rat brain MAO-B” value (rat brain MAO-B) was “did not inhibit” and the antidepressant activity [1] was “no significant antidepressant activity”.
